Reference: patent US12410472B2, “Method for evaluating the eye irritation potential of chemicals” (IMMUNOSEARCH, priority 2016, dated 2025)
Counter-ions that a name gives are not always drawn. Like-named read-outs stand apart in the source and are kept apart here.

How the values were obtained:
[1] = test system: reconstructed human corneal epithelium model (SkinEthic™ HCE)
From the text: The reconstructed human corneal epithelium model, (SkinEthic™ HCE) was purchased from Episkin in Lyon. The model consists of immortalized human corneal epithelial cells grown in a defined medium at the air-liquid interface. The tissue structure obtained is a multi-layer epithelium similar to the natural tissue structure of the human cornea, comprising 5-7 layers with a surface area of 0.5 cm^2.
Polyhedral cells and wing cells are also present. The tissue also comprises specific ultrastructures such as intermediate filaments, mature hemidesmosomes and desmosomes. […] The tissues are shipped on a semi-solid layer of agarose culture medium. Upon receipt, the tissues are transferred to maintenance medium (1 ml/well) in 6-well plates and incubated in a climatic chamber at 37° C., 5% CO2. The tissues are used 24 hours later.
The procedure for applying solid (powdered) products to the tissues was optimized as follows. First, the products are reduced to the finest possible powder with a mortar. The chemicals are tested at a single dose. In summary, the tissue surface is moistened by adding 20 μl of PBS at 37° C. and incubation for 10 min at 37° C./5% CO2. The corneal epithelia are then treated topically with 30±2 mg (representing 60 mg/cm2) and incubated for 30 min at room temperature. The tissues are then washed with sterile PBS (2×25 ml) at 37° C. PBS is applied to the edge of the insert (not directly on the tissue) to create a gentle vortex that removes the chemical. The tissues on their inserts are then “embedded” in 5 ml of maintenance medium at room temperature for 30 minutes in order to remove as much as possible of the product remaining on the tissue surface. The medium is then removed by gently tapping the insert on absorbent paper, and 50 μl of maintenance medium at 37° C. is added. The inserts are then incubated for 6 h at 37° C./5% CO2.
In summary, corneal tissues are recovered with forceps and placed in tubes for rapid freezing in liquid nitrogen. The RNA is then extracted by the QIAzol technique (Qiagen, Courtaboeuf, France) with an “RNeasy Mini Kit” according to the manufacturer's instructions. In summary, the tissues are placed in 1 ml of QIAzol and homogenized using the TissueLyser II (Qiagen, Courtaboeuf, France) with 2 steel beads. After centrifugation, the supernatant is collected and 0.2 ml of bromochloro propane (Sigma, France) is added, then the whole is vigorously mixed. The homogenate is centrifuged at 12,000 g for 15 min at 4° C. The upper phase (aqueous phase) is added to 600 μl of 70% ethanol and immediately mixed by pipetting. The mixture is transferred to an RNeasy spin column placed on a 2 ml collection tube and the RNA is collected according to the manufacturer's instructions (Qiagen, Courtaboeuf, France).
In summary, the transcription of total RNA is performed with 1 μg of total RNA in a final volume of 20 μl using “Random Primers” (Invitrogen, France) and “SuperScript III Reverse Transcriptase” (Invitrogen, France) according to the manufacturer's instructions. Quantitative RT-PCR uses a PCR reagent mix: SYBR Green Real-Time PCR Master Mix (ROCHE, France) with 0.4 μM of each nucleotide primer in a final volume of 25 μl. The reaction is performed in an LC480 System (ROCHE, France). The amplification program comprises a cycle at 95° C. for 1 min, followed by 40 cycles with denaturation at 95° C. for 15 s, a hybridization and amplification phase at 60° C. for 15 s, followed by a final elongation phase at 72° C. for 40 s.
The relative amount of each transcript is normalized to the average amount of expression of 5 so-called housekeeping genes (Glucuronidase β-GUSB, vacuolar ATPase-ATP6V0E1, H2A Histone Family, Member Y-H2AFY, Glucose-6-Phosphate Dehydrogenase-G6PD and “non-POU domain-containing, octamer-binding”-NONO).
The gene expression rate is measured by an absolute quantification analysis method using an algorithm based on the maximum of the second derivative developed by Roche.

eye = conditions: cited from earlier work
[2] = Table 6, list of solid chemicals studied
[3] = control chemicals and chemicals of FIG. 1 and FIG. 2
[4] = classification from the Solid Irritation Index
[5] = solid product applied pure in powder form, 30±2 mg, first of three index values
[6] = solid product applied pure in powder form, 30±2 mg, second of three index values
[7] = solid product applied pure in powder form, 30±2 mg, third of three index values

SMILES | EIT prediction [1] | UN-GHS (eye; Draize test classification) | GHS Class (eye; [2]) | eye irritation category as stated in text and figure legends (eye; [3]) | EIT prediction [1, 4] | Irritation INDEX [1, 5] | Irritation INDEX [1, 6] | Irritation INDEX [1, 7] | further results
O=C([O-])C(=O)[O-].[Na+].[Na+] [Sodium oxalate] | Cat 1 | Cat 1 | Cat 1 | category 1 | – | – | – | – | –
O=C(Nc1ccc(Cl)cc1)Nc1ccc(Cl)c(Cl)c1 [1-(4-Chlorophenyl)-3-(3,4-dichlorophenyl) urea] | – | No Cat | No cat | – | No Cat | 0 | 0 | 1 | –
F[B-](F)(F)F.[K+] [Potassium tetrafluoroborate] | – | No Cat | No cat | No category | No Cat | 4 | 6 | 2 | –
Cc1cc(C)nc(Nc2ccccc2)n1 [2-Anilino-4,6-dimethylpyrimidine] | No Cat | – | – | – | – | – | – | – | Irritation INDEX ([1]; human, 30 min, 60 mg/cm2): 0; GHS Class (eye; rabbit, in vivo): No cat; UN-GHS (eye; rabbit, in vivo): No Cat; eye irritation category as stated in text and figure legends (eye; rabbit, in vivo): No category
CCOc1ccc(Br)cc1 [4-Bromophenetol] | – | No Cat | No cat | No category | No Cat | 2 | 2 | 3 | –
CC(CN1c2ccccc2Sc2ccccc21)N(C)C (centres unmarked) [Promethazine hydrochloride] | – | Cat 1 | Cat 1 | category 1 | – | – | – | – | EIT prediction ([1]; human, 30 min, 60 mg/cm2): Cat 1
CC(C)(C)CC(C)(C)c1cc(Cc2cc(C(C)(C)CC(C)(C)C)cc(-n3nc4ccccc4n3)c2O)c(O)c(-n2nc3ccccc3n2)c1 [Methylene bis-benzotriazolyl tetramethylbutyl phenol] | No Cat | No Cat | – | – | – | – | – | – | –
CC(C)(O)C(=O)O [alpha-Hydroxyisobutyric acid] | – | – | – | category 1 | – | – | – | – | EIT prediction ([1]; human, 30 min, 60 mg/cm2): Cat 1
CCCCCCCCCCCCCCOC(=O)CCCCCCCCCCCCC [Tetradecyl tetradecanoate] | No Cat | – | – | No category | – | – | – | – | –
CC(C)(C)c1cc(Cc2cc(C(C)(C)C)c(O)c(C(C)(C)C)c2)cc(C(C)(C)C)c1O [4,4′-Methylene bis-(2,6-di-tert-butylphenol)] | No Cat | No Cat | No cat | No category | – | – | – | – | –
CC(C)(O)CCC(C)(C)O | – | Cat 1 | Cat 1 | category 1 | Cat 1 | 22 | 23 | 21 | –
